Source: patent publication US20100008874A1, “SUBSTITUTED PYRIMIDINES, PROCESS FOR THEIR PRODUCTION AND THEIR USE AS EFFECTIVE ABSORBENTS OF UV IRRADIATION” (YISSUM RESEARCH DEVELOPMENT COMPANY, priority 2006, published 2010)
Like-named read-outs stand apart in the source and are kept apart here. Marks after values point to notes of the source that are not given here.

Assays:
[1] = Autoxidation rate in air-saturated phosphate buffer, followed spectrophotometrically; format: physicochemical; conditions: air saturated 0.05M phosphate buffer pH 7.0, 1 mM EDTA, 25° C., [Pyrimidine] = 2.4 × 10^−5 M
Experimental: The autoxidation rate was measured in air-saturated buffer phosphate solutions 0.05 M at pH 7 and 25° C. The solutions contained 1 mM EDTA to minimize catalysis of the oxidation by trace metallic cations. The rate of autoxidation was measured spectrophotometrically by following the decrease of the UV absorbance of the pyrimidines at their respective λ max (Table 1).
This is probably the reason why there was no transient appearance of an absorption maximum around 240-255 nm which is assumed to be due to the intermediacy of oxidized pyrimidine B (Scheme 1), and was found in the autoxidation of isouramil, divicine and related systems. The decrease in the absorbance of 8a-c, followed a reasonably pseudo first order reaction in the pyrimidine concentration (the dissolved oxygen concentration was at least 13 times higher). However, it was found (Winterbourn, C. C.; Cowden, W. B.; Sutton, H. Biochem. Pharmacol. 1989, 38, 611-618) that the reaction mechanism is complex and involves radical intermediates and chain reactions and that the dependency on the pyrimidine concentration is far from simple. Therefore, in accordance with the present invention a different approach was adapted that uses the measured initial reaction rates for checking the quantitative dependency of the oxidation rate on the electron releasing power of the substituent in the C2 position. Table 1 also contains the initial rates for the reactions of isouramil and divicine (8d and 8e) calculated from Winterbourn, C. C.; Cowden, W. B.; Sutton, H. Biochem. Pharmacol. 1989, 38, 611-618; (aerated 0.05M phosphate buffer, pH 7, 23° C., 50 nM DTPA and similar to our pyrimidine concentrations) using ΔH of 60.2 kJ/mole (Chevion et al.^5a).

[2] = UV absorption spectrum (spectral properties); format: physicochemical; conditions: footnote b: this work
[3] = calculated from literature (aerated 0.05M phosphate buffer, pH 7, 23° C., 50 nM DTPA) using ΔH of 60.2 kJ/mole; cited from earlier work
[4] = footnote d: reference; cited from earlier work
[5] = test system: tumor necrosis factor (TNF); conditions: in-vitro and in-vivo; cited from earlier work
[6] = test system: murine erythroleukemic cells; conditions: cited from earlier work

## Cc1ncc(O)c(=O)[nH]1 [6a, 5-Hydroxy-2-methylpyrimidin-4(3H)-one]
other
  melting point: > 300 °C

## Nc1nc[nH]c(=O)c1O [H, 6-Amino-5-hydroxypyrimidin-4(3H)-one]
[1]
  Initial rate (autoxidation): 0.00087^c μM/sec
[2]
  ε at λmax: 13000
  λmax: 274 nm
other
  melting point: > 300 °C

## Nc1nc(N)c(O)c(O)n1 [NH2, 2,6-diamino-5-hydroxypyrimidin-4-one]
[3]
  Initial rate (autoxidation): 0.061^e μM/sec
[4]
  ε at λmax: 9800
  λmax: 285 nm
[5]
  effect on lipopolysaccharide-induced release of TNF: enhances
[6]
  cytotoxicity in combination with carboplatin: synergistic cytotoxicity

## CSc1nc(N)c(O)c(=O)[nH]1 [SCH3, 6-Amino-5-hydroxy-2-(methylthio)pyrimidin-4-(3H)-one]
[1]
  Initial rate (autoxidation): 0.0097^c μM/sec
[2]
  ε at λmax: 10800
  λmax: 286 nm

## Cc1nc(N)c(O)c(=O)[nH]1 [CH3, 6-Amino-5-hydroxy-2-methylpyrimidin-4(3H)-one]
[1]
  Initial rate (autoxidation): 0.0015^c μM/sec
[2]
  ε at λmax: 16200
  λmax: 275 nm
other
  melting point: > 300 °C

## CSc1nc(N=Nc2ccccc2)c(O)c(=O)[nH]1 [7c, 5-Hydroxy-2-methylsulfanyl-6-phenylazo-3H-pyrimidin-4-one]
other
  melting point: 213 to 215 °C

## Cc1nc(N=Nc2ccccc2)c(O)c(=O)[nH]1 [7a, 5-Hydroxy-2-methyl-6-phenylazo-3H-pyrimidin-4-one]
other
  melting point: 243 to 245 °C

## Nc1nc(O)[nH]c(=O)c1O [OH, 6-amino-2,5-dihydroxypyrimidin-4-one]
[3]
  Initial rate (autoxidation): 0.067^e μM/sec
[4]
  ε at λmax: 14100
  λmax: 280 nm

## O=c1[nH]c(S)ncc1O [6c, 5-Hydroxy-2-mercapto-3H-pyrimidin-4-one]
other
  melting point: > 300 °C

## Cc1ncc(OC2CCCCO2)c(=O)[nH]1 (centres unmarked) [5a, 2-Methyl-5-(tetrahydro-2H-pyran-2-yloxy)pyrimidin-4(3H)-one]
other
  melting point: 149 to 151 °C

## O=c1[nH]c(S)ncc1OC1CCCCO1 (centres unmarked) [5c, 2-Mercapto-5-(tetrahydro-pyran-2-yloxy)-3H-pyrimidin-4-one]
other
  melting point: > 300 °C

## O=c1[nH]cnc(N=Nc2ccccc2)c1O [7b, 5-Hydroxy-6-phenylazo-3H-pyrimidine-4-one]
other
  melting point: 244 to 245 °C
